Source: ChEMBL document CHEMBL1201862, “PubChem BioAssay data set” (2004)
Structures can show the parent of a compound that is named as a salt.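 Compound exposure: 48 hours, 5 concentrations, 96-well plates. GI50 = concentration required for 50% inhibition of growth.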 Active and inactive are the calls of the source. Rule as the data show it: active = GI50 up to about 1.1 µM and inactive = higher.

Assays:
Test in all cases: inhibition of tumour cell growth, NCI panel, 48 h
[1] = tested on: LOX IMVI
[2] = tested on: A549
[3] = tested on: UO-31
[4] = tested on: A498
[5] = tested on: T47D
[6] = tested on: KM12
[7] = tested on: OVCAR-5
[8] = tested on: EKVX
[9] = tested on: NCI/ADR-RES
[10] = tested on: OVCAR-3
[11] = tested on: 786-0
[12] = tested on: SF-295
[13] = tested on: MDA-MB-231
[14] = tested on: K562
[15] = tested on: U-251
[16] = tested on: CAKI-1
[17] = tested on: OVCAR-8
[18] = tested on: HOP-92
[19] = tested on: UACC-257
[20] = tested on: NCI-H522

Measured: GI50

O=C(O)Cc1c[nH]c2ccc(F)cc12
inactive: [1] > 100 µM | [2] > 100 µM | [3] > 100 µM | [4] > 100 µM | [5] > 100 µM | [6] > 100 µM | [7] > 100 µM | [8] > 100 µM | [9] > 100 µM | [10] > 100 µM | [11] > 100 µM | [12] > 100 µM | [13] > 100 µM | [14] > 100 µM | [15] > 100 µM | [16] > 100 µM | [17] > 100 µM | [18] > 100 µM | [19] > 100 µM

CCN(CC)c1ccc2cc(C(N)=S)c(=N)oc2c1
inactive: [20] > 100 µM | [1] > 100 µM | [2] > 100 µM | [3] > 100 µM | [5] > 100 µM | [6] > 100 µM | [7] > 100 µM | [8] > 100 µM | [9] > 100 µM | [11] > 100 µM | [12] > 100 µM | [13] > 100 µM | [14] > 100 µM | [15] > 100 µM | [16] > 100 µM | [17] > 100 µM | [18] > 100 µM | [19] > 100 µM

CCN(CC)CCNc1ccc(C)c2sc3ccccc3c(=O)c12 [LUCANTHONE HYDROCHLORIDE]
inactive: [20] 2.31 µM | [1] 1.49 µM | [2] 2.61 µM | [3] 1.57 µM | [4] 2.23 µM | [5] 7.08 µM | [6] 3.09 µM | [7] 3.05 µM | [8] 6.82 µM | [9] 4.3 µM | [10] 6.08 µM | [11] 3.02 µM | [12] 2.18 µM | [13] 2.85 µM | [14] 1.97 µM | [15] 2.33 µM | [16] 2.85 µM | [17] 3.4 µM | [19] 1.66 µM

O=C(/C=C\Nc1ccccc1O)C(F)(F)F
inactive: [20] 31 µM | [1] 95.3 µM | [2] > 100 µM | [3] 27.7 µM | [5] 39 µM | [6] > 100 µM | [7] > 100 µM | [8] 51.2 µM | [9] > 100 µM | [10] 19.5 µM | [11] 35.1 µM | [12] 50 µM | [13] > 100 µM | [14] 38.5 µM | [15] 41.6 µM | [16] 68.1 µM | [17] 90.4 µM | [18] > 100 µM | [19] 26.1 µM

C[C@]12CCC(=O)C=C1CC[C@@H]1[C@@H]2CC[C@]2(C)C(=O)/C(=C\c3ccccc3)C[C@@H]12
inactive: [1] 21.2 µM | [2] 22.6 µM | [3] 25.7 µM | [4] 15.6 µM | [5] 17.5 µM | [6] 20.4 µM | [7] 50 µM | [8] 19 µM | [9] 14 µM | [10] 22.1 µM | [11] 26.1 µM | [12] 29.9 µM | [13] > 50.8 µM | [14] > 100 µM | [15] 29.4 µM | [16] 43.5 µM | [17] 21.7 µM | [18] 23.2 µM | [19] 23.1 µM

CSc1c(C#N)c(O)nc(N)c1C(=O)Nc1ccc(C)cc1
inactive: [20] 71.9 µM | [1] > 100 µM | [2] > 100 µM | [3] 31.4 µM | [4] 38.9 µM | [5] > 100 µM | [6] > 100 µM | [7] > 100 µM | [8] > 100 µM | [9] > 100 µM | [10] > 100 µM | [11] > 100 µM | [13] > 100 µM | [14] > 100 µM | [15] > 100 µM | [16] 32.2 µM | [17] > 100 µM | [19] > 100 µM

CC(=O)N1CC[N+](C)(CCCCN2c3ccccc3Sc3cc(N=[N+]=[N-])ccc32)CC1
inactive: [20] > 100 µM | [1] > 100 µM | [2] > 100 µM | [3] > 100 µM | [4] > 100 µM | [5] > 100 µM | [6] > 100 µM | [7] > 100 µM | [8] > 100 µM | [9] > 100 µM | [10] > 100 µM | [11] > 100 µM | [12] > 100 µM | [13] > 100 µM | [14] 49.8 µM | [15] > 100 µM | [16] > 100 µM | [17] > 100 µM | [19] > 100 µM

O=C(O)/C=C/C(=O)O [FUMARIC ACID]
inactive: [20] > 100 µM | [1] > 100 µM | [2] > 100 µM | [3] > 100 µM | [5] > 100 µM | [6] > 100 µM | [7] > 100 µM | [8] > 100 µM | [9] > 100 µM | [10] > 100 µM | [11] > 100 µM | [12] > 100 µM | [13] > 100 µM | [14] > 100 µM | [15] > 100 µM | [16] > 100 µM | [17] > 100 µM | [18] > 100 µM | [19] > 100 µM

O=[N+]([O-])C(Cl)C(Cl)C(Cl)=C(Cl)Cl (stereo unspecified)
inactive: [20] 21.4 µM | [1] 14.4 µM | [2] > 91.8 µM | [3] > 31.6 µM | [4] > 77.3 µM | [6] > 66.7 µM | [7] > 50.2 µM | [8] > 100 µM | [9] 40.7 µM | [10] 26 µM | [11] 7.85 µM | [12] 60 µM | [13] 16.2 µM | [14] 29.8 µM | [15] > 83.6 µM | [16] 17.6 µM | [17] 30.9 µM | [19] 22.1 µM
active: [5] 0.547 µM

Cn1cc(C[C@@H](N)C(=O)O)c2ccccc21 [INDOXIMOD]
inactive: [20] > 100 µM | [1] > 100 µM | [2] > 100 µM | [3] > 100 µM | [4] > 100 µM | [5] > 100 µM | [6] > 100 µM | [7] > 100 µM | [8] > 100 µM | [9] > 100 µM | [10] > 100 µM | [11] > 100 µM | [12] > 100 µM | [13] > 100 µM | [14] > 100 µM | [15] > 100 µM | [16] > 100 µM | [17] > 100 µM | [19] > 100 µM

c1ccc2c(c1)sc1c3cnccc3ccc21
inactive: [20] > 100 µM | [1] 71.6 µM | [2] 33.7 µM | [3] > 100 µM | [4] > 100 µM | [5] > 100 µM | [6] 46.6 µM | [7] > 100 µM | [8] 6.71 µM | [9] > 100 µM | [10] > 100 µM | [11] > 100 µM | [12] 85.9 µM | [13] > 100 µM | [14] > 100 µM | [15] > 100 µM | [16] 43.3 µM | [19] 56.6 µM

C=C1C(=O)OC2C1CC(OC(C)=O)/C(C)=C/CCC1(C)OC21 (stereo unspecified)
inactive: [20] > 100 µM | [1] > 100 µM | [2] > 100 µM | [3] > 100 µM | [5] > 100 µM | [6] > 100 µM | [7] > 100 µM | [8] > 100 µM | [9] > 100 µM | [10] > 100 µM | [11] > 100 µM | [12] > 100 µM | [13] > 100 µM | [14] > 100 µM | [15] > 100 µM | [16] > 100 µM | [17] > 100 µM | [18] > 100 µM | [19] > 100 µM

O=C(O)CCC(NC(=O)c1ccc(Nc2cnc3ccc(C(F)(F)F)cc3n2)cc1)C(=O)O (stereo unspecified)
inactive: [1] > 100 µM | [2] > 100 µM | [3] > 100 µM | [4] > 100 µM | [5] > 100 µM | [6] > 100 µM | [7] > 100 µM | [8] > 100 µM | [9] > 100 µM | [10] > 100 µM | [11] > 100 µM | [12] > 100 µM | [13] > 100 µM | [14] > 100 µM | [15] > 100 µM | [16] > 100 µM | [17] > 100 µM | [18] > 100 µM | [19] > 100 µM

O=C(O)C1(Cc2ccc3c(c2)CCC3)Cc2ccccc2C1=O (stereo unspecified)
inactive: [1] 78 µM | [2] 42.3 µM | [3] 56 µM | [4] 42.5 µM | [5] 40.9 µM | [6] 39.7 µM | [7] > 100 µM | [8] 63.2 µM | [9] 58.1 µM | [10] 54 µM | [11] > 100 µM | [12] 33.6 µM | [13] > 100 µM | [14] 50.5 µM | [15] 38.4 µM | [17] 83 µM | [18] 20.8 µM | [19] > 100 µM

O=C1C=CC2CCC1C2 (stereo unspecified)
inactive: [20] 17.7 µM | [1] 29.4 µM | [2] 40.6 µM | [3] 31.2 µM | [4] 90.2 µM | [5] 19.9 µM | [6] 32.4 µM | [7] 26.2 µM | [8] > 100 µM | [9] 22.4 µM | [10] 43.1 µM | [11] 40.9 µM | [12] 44.2 µM | [13] 28.6 µM | [14] 27.4 µM | [15] 28.8 µM | [16] 27.5 µM | [17] 28.7 µM | [19] 46.8 µM
